Laboratory results published in patent US4221909A, “P-Acetamidobenzoic acid salts of 9-(hydroxyalkyl) purines” (Sloan-Kettering Institute for Cancer Research, priority 1978, dated 1980).
Structures can show the parent of a compound that is named as a salt.

Assays:
Type in all cases: cell-based
[1] = tested on: Mouse spleen cells; experiment: Mitogen Induced (Con A) Mouse Lymphocyte Proliferation
Excerpt: The following three assay procedures are used to evaluate the ability of the test substances to modulate the activity of several classes of cells in the immune system. In these systems it is possible to identify both immunopotentiating activity (evidence by an enhancement of the parameter examined) as well as immunosuppressant activity (evidenced by an inhibition of the parameter examined).
1. Mitogen--Induced Mouse Spleen Cell Assay--Mouse spleen cells contain a population of both B and T lymphocytes which can be stimulated by a number of foreign substances (e.g., plant mitogens such as Con A) to proliferate. This enhanced proliferation is an indication of enhanced cell mediated immunity. The method below describes the system used to evaluate test substances as immunopotentiators.
Concanavalin A (Calbiochem, La Jolla, Calif.), Lot #210073, lyophilized in NaCl, was prepared first as a 1% solution and diluted as a 2× concentration for each dilution (0.5, 1.0, 2.5 μg/ml).
Six to eight week old male Balb/c and C3 H inbred mice were obtained from the following sources: Flow Research Animals, Inc., Dublin, Va.; Charles River Breeding Laboratories, Wilmington, Mass.; Laboratory Supply Company, Indianapolis, Ind.; and Lionel Strong Foundation, San Diego, Calif.
Three to five mice were sacrificed by cervical dislocation and the spleens aseptically removed. Pooled spleens were minced and teased with sterile forceps; then strained through a double layer of nylon mesh. The cell suspension was washed once with 15 ml of RPMI 1640 supplemented with 5% fetal calf serum and antibiotics. Cells were cultured at a concentration of 10^6 cells/0.1 ml/well in micro-plates. Cultures were incubated in the presence or absence of mitogen in a humidified atmosphere containing 5% CO2 for 48 hours. The test compound was added to cultures at various concentrations concommitant with mitogen.
Proliferation was assayed by the degree of incorporation of 1.0 μCi of [^3 H] thymidine over an 18 hour incubation period. Cultures were harvested by a MASH unit (Otto Hiller Co., Madison, Wisconsin) and thymidine incorporation was assayed by liquid scintillation spectrometry. Cultures were performed in triplicate and data are expressed as means plus or minus the strandard error of the experimental means. Drug stimulation indices over control values were also calculated and portrayed graphically.

[2] = tested on: human peripheral blood lymphocytes; experiment: Mitogen Induced (PHA) Human Lymphocyte Proliferation
[3] = tested on: influenza virus; experiment: Anti-influenza activity (summary)

CCCCCC[C@H]([C@H](C)O)n1cnc2c(N)ncnc21 (relative stereo) [NPT 15426, Erythro-9-(2-Hydroxy-3-Nonyl)-Adenine. HCl]
Maximum Percent Change, Mitogen Induced (Con A) Mouse Lymph. Prolif. ([1]; 1.0-10): -85% | Maximum Percent Change, Mitogen Induced (Con A) Mouse Lymph. Prolif. ([1]; 10-100): -91% | Maximum Percent Change, Mitogen Induced (Con A) Mouse Lymph. Prolif. ([1]; .01-1.0): -50% | Maximum Percent Change, Mitogen Induced (PHA) Human Lymph. Prolif. ([2]; 1.0-10): -41% | Maximum Percent Change, Mitogen Induced (PHA) Human Lymph. Prolif. ([2]; .01-1.0): 6% | anti-influenza activity by themselves [3]: significant anti-influenza activity
